For orientation: IC50 means the concentration that inhibits the measured activity by half. Usually EC50 stands for the concentration needed to bring the measured effect to its halfway point. Higher therefore signals weaker potency. As usually defined, the inhibition is the drop in the measured response relative to a control, in per cent. Lower therefore signals a response near the control. As a reminder, the melting point is the temperature of the solid-liquid transition.

One data set addresses T1, p38alpha (Homo sapiens, UniProt Q16539).
T1 construct: in some cases as full-length kinases, in some cases as truncated fragments
Briefly: Cell-free kinase assay (ALPHA technology), p38alpha. Type of data set: biochemical. The following applies: at 10 μM or 100 μM* ATP, recombinant human kinase. The method, then: The inhibitory effect of the inventive compounds was tested on various human serine/threonine kinases, tyrosine kinases and lipid kinases in enzymatic assays. Recombinant human kinases, for example Erk2, PI3Kalpha, -beta, -gamma, -delta, p38alpha, p38gamma, Jnk1, Jnk2 and others were used, in some cases as full-length kinases, in some cases as truncated fragments—but at least consisting of the functional kinase domains. The commercial kinase proteins (Proqinase, Upstate) were used as recombinant fusion proteins with GST (glutathione S-transferase) tag or His tag. Depending on the substrate type, the different kinase reactions were quantified by means of suitable ALPHA™ beads (PerkinElmer). […]
The fluorescence was detected the next morning in a Fusion™ alpha instrument (Perkin Elmer).
The calculation of % inhibition values per substance concentration was done by means of the following formula from the raw data determined in the Fusion™ alpha:
The controls were each determined 8 times, the substance samples each twice. 0% control contained neither any ATP nor any substrate; the 100% control contained no test substance. The IC50 values were determined with GraphPadPrism.

In another data set the test system is MDA-MB468. Kind of data set: XTT assay, anti-proliferative action, MDA-MB468. Type of data set: cell-based. The following applies: Homo sapiens, MDA-MB-468, 45 h, MDA-MB468 cells, 45 h incubation. The protocol:
(§1) The principle of this test is based on the intracellular reduction of the tetrazolium dye XTT (sodium 3′-[1-(phenylaminocarbonyl)-3,4-tetrazolium]bis(4-methoxy-6-nitro)benzenenesulphonic acid, Sigma) to a formazan dye by mitochondrial dehydrogenases.
(§2) The dye is formed only by metabolically active cells; its photometrically measurable intensity is a quantitative indicator for the presence of living cells. The reduction in the dye formation as a result of incubation of the cells with substances serves as a parameter for the anti-proliferative action.
(§3) The tumour cell lines (ATCC) were seeded in 96-well microtitre plates in a defined cell count (5000 cells/well for BxPC3 and Hct116; 10 000 cells/well for MDA MB468), and then incubated overnight in an incubator at 37° C., 5% CO2 and 95% air humidity. The test substances were made up as stock solutions (10 mM) in DMSO. […] The cell plates were then incubated for 45 h in an incubator at 37° C., 5% CO2 and 95% air humidity.
(§4) For the detection reaction, the XTT substrate was admixed with PMS (N-methyldibenzopyrazine methylsulphate, Sigma) and added to the cells, so as to result in a final concentration of 325 μg of XTT/ml and 2.5 μg PMS/ml. The mixture was then incubated for 3 h at 37° C., 95% air humidity. Subsequently the formazan salt formed by cellular dehydrogenases was quantified at an absorption of 490 nm.
(§5) The evaluation of the % inhibition values was done by means of the following formula from the values for the optical densities measured in each case at 490 nm:
(§6) The controls were determined 8 times each, the substance samples twice each. 0% control contained no cells; the 100% control contained no test substance. The EC50 values were determined with GraphPadPrism.
(Tetrazolium assays rely on reduction of a dye to a coloured formazan, in cell work by metabolically active cells.)

The subject of a further data set is Hct116. Kind of data set: XTT assay, anti-proliferative action, Hct116. It is filed as cell-based. The settings on record: Homo sapiens, HCT-116, 45 h, Hct116 cells, 45 h incubation. The protocol: as §1, §2, §3, §4, §5, §6
A further data set relates to Erk →pRsk. Kind of data set: Cellular substrate phosphorylation (Western blotting), Erk substrate Rsk1. It is filed as cell-based. The settings on record: 5 h, tumour cell line. The protocol: This method enables a statement of whether the kinase modulator investigated achieves the desired effect in a cellular context too, i.e., in this case, a substrate protein downstream of the target kinase is examined for its phosphorylation status. To this end, the cells incubated with substance are lysed and the overall protein is separated on a reducing polyacrylamide gel. Subsequently, the proteins are transferred by means of Western blotting to a PVDF membrane and the substrate bands sought are made visible with specific antibodies and a suitable detection method. The substrate proteins downstream of the target kinases are detected simultaneously with an anti-phospho antibody which is specific in each case and simultaneously a total antibody which recognizes the substrate total protein. The duplex technology of the ODYSSEY imager (LiCOR) enables this simultaneous measurement. The intensity of the total substrate bands is employed to normalize and quantify the phosphorylation inhibition or activation.
Suitable tumour cell lines (e.g. BxPC3, Hct116 or MDA MB468) were seeded into 6-well microtitre plates in a defined cell count (e.g. 350 000 cells/well for BxPC3 and Hct116) in the particular standard complete media and then incubated overnight in an incubator at 37° C., 5% CO2 and 95% air humidity. The cells were then incubated further for a further 24 h under reduced-serum conditions, i.e. in the particular medium except at only 0.25% serum. The test substances were made up as stock solutions (10 mM) in DMSO and incubated with the cells at final concentrations of 5, 15.8 and 50 μM for 5 h. This was followed by cell lysis in 25 mM Tris, 150 mM NaCl, 10 mM sodium pyrophosphate, 2 mM EGTA, 25 mM beta-glycerophosphate, 25 mM NaF, 10% glycerol, 0.75% NP-40, 100 μM NaVO4 buffer. After protein quantification by means of BCA (bicinchonic acid protein assay kit, Sigma) assay, amounts of protein of about 20 μg per track were separated on a Lammli polyacrylamide gel and then transferred onto a PVDF membrane (Millipore) by means of semi-dry Western blotting at 0.8 mA/cm^2 for 1 h. This was followed by prehybridization of the membrane for 1 hour in I-block reagent (Applied Biosystems) and overnight incubation with the specific antibodies. To determine the Erk and PI3K inhibition, the next substrates Rsk1 downstream were detected with the total antibody (Rsk #sc-231g C-21, Santa Cruz) and the phospho antibody (Phospho-p90RSK (S380) #9341, NEB Cell Signalling) and Akt with the total antibody (Akt1 #sc-20, Santa Cruz) and the phospho antibody (Phospho-Akt (Ser 473) #9271, NEB Cell Signaling). After the membrane had been washed, the secondary antibodies were incubated with anti-rabbit IR Dye 800 (#611-732-127, Rockland) for the phospho antibody and anti-goat Alexa Fluor 680 (#A-21081, […]) for the total protein antibody. After incubation for 30 min at room temperature in the dark, the hybridization of the detection antibody was detected on the membrane by scanning in an ODYSSEY imager (LiCOR).

T1 sequence (Q16539 whole entry, the tested form may be a part): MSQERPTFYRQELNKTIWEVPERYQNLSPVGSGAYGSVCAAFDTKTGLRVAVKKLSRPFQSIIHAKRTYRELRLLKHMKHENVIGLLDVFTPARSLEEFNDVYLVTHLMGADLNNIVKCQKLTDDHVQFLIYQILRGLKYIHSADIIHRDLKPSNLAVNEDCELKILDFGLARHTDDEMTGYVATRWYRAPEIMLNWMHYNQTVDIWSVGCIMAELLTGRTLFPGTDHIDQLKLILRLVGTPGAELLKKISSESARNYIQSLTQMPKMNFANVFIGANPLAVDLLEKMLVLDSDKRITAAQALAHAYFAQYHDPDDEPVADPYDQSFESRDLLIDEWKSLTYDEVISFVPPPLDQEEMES

Regarding `CCNC(=O)Nc1ccc2ncc(Nc3ccc(C)c(NS(C)(=O)=O)c3)nc2n1` [Compound 49, N-{5-[6-(3-Ethylurea)pyrido[2,3-b]pyrazin-3-ylamino]-2-methylphenyl}methanesulphonamide], the melting point was in the range of 247 to 250 °C. In addition, the half-maximal inhibitory concentration (IC50) on p38alpha is 4 µM. Further, the EC50 in the data set on MDA-MB468 stood at 16 µM. In addition, the half-maximal effective concentration (EC50) in the data set with Hct116 was approximately 20 µM. This compound yielded an inhibition at 50 µM in the data set on Erk →pRsk of 0%.

The record behind these values is patent US8217042B2, “Pyridopyrazines and their use as modulators of kinases” (Zentaris GmbH, priority 2005, dated 2012).
